Test results published in patent US20190307820A1, “COMPOSITIONS AND METHODS OF USING STAT1/3 INHIBITORS WITH ONCOLYTIC HERPES VIRUS” (priority 2016, published 2019).
Where a name gives a salt, the structure may show the parent alone.

Key:
ICP4 = test: Western blot of ICP4 in HSV-1 infected microglia cells; assay type: cell-based; details: G207 infected; 1 μM C16, 1 μM Bay11 or 100 μM AG; 24 hours
Method: FIG. 12B depicts an electrophoresis gel showing total proteins that were harvested from G2O7 infected microglia cells at 24 hours post treatment with either 1 μM of C16, 1 μM of Bay11, or 100 μM of AG. ICP27, ICP4, and […] expression was measured by western blot assay. U87 and MG co-culture were pretreated with 0.5 μM of C16 for 1 hour.
Total protein was harvested with sample buffer (125 mM Tris-HCL, 50% Glycerol, […] and 5% 2-mercaptoethanol) and boiled for 5 minutes. Protein samples were subjected to SDS-PAGE (8% gel), transferred to nitrocellulose membranes and blocked in 5% nonfat milk (Bio Rad) in TBS-Tween 20 (TBS-T) for 1 hour at room temperature. The membranes were then incubated with primary antibody against β-actin at 1:1000 (Cell Signaling, Danvers, Mass.) or anti-STAT1 antibody at 1:1000 (Cell Signaling, Danvers, Mass.) or anti-STAT3 antibody at 1:1000 (Cell Signaling, Danvers, Mass.) or anti-phospho STAT1 antibody (Tyr701) at 1:1000 (Cell Signaling, Danvers, Mass.) or anti-phospho STAT3 antibody (Tyr705) at 1:1500 (Cell Signaling, Danvers, Mass.) or anti-phosphor-eIF2a antibody (ser51) at 1:1000 (Cell Signaling, Danvers, Mass.) or anti-ICP27 antibody at 1:1000 (Abcam, Cambridge, Mass.) or anti-ICP4 antibody at 1:750 (Abcam, Cambridge, Mass.) for overnight at 4° C. […] Band density was measured by using ImageJ software (NIH, Bethesda, Md.). […]

[1] = tested on: oHSV-1 (G207) in BV2 cells; test: G207 replication in BV2 cells with chemical inhibitors, plaque forming assay; assay type: cell-based, HSV-1; details: G207 MOI of 1, 48 hours
Method: (§1) FIG. 12A contains bar graphs showing the results of BV2 cells that were pre-treated with indicated chemical compounds for 1-2 hours and then infected with oHSV-1 at an MOI of 1. Viruses were harvested after 48 hours of oHSV-1 (G207) and indicated chemical inhibitor treatment.
as §1, with “12F is a” for “12A contains”, “graph” for “graphs”, “treatment. After 48 hours of treatment with oHSV-1 (G207) and C16, viruses were harvested and titrated by plaque forming assay on vero cells.” for “treatment.”
U87 (5×104) alone or U87+microglia co-culture (5×104+5×104) or BV2 microglia cells (5×104) alone were seeded into a 24-well plate. After overnight incubation (to allow the cells to attach), cells were pretreated with indicated concentration of NFkB inhibitor, Bay-11 (Santa Cruz, Canada) or an indicated concentration of imidazolo-oxindole derivative C16 (Milipore, Canada) or vehicle for 1-2 hours. The cells were then infected with oHSV-1 (G207 or HrR3) virus at a MOI of 1 in presence of chemical inhibitors for another 2 days. The viruses were harvested and titrated in vero cells by plaque forming assay in 12-well plates by triplicates.
The effects of a PKR inhibitor (C16), a NFkappaB inhibitor (Bay11), and an iNOS inhibitor (aminoguanidine hydrochloride) were tested on G207 replication in BV2 cells (Example 15). […] To verify that C16-mediated viral gene transcriptional augmentation is not due to deletions in ICP34.5 and/or ICP6 in G207, the effect of C16 on wild type (KOS) and ICP6 mutated (HrR3) HSV-1 infected BV2 cells was also examined. […] Finally, whether C16 can overcome this microglia-mediated suppression of viral replication in glioma cells was examined.

Compound | upregulated expression of ICP4 (ICP4) | effect on oHSV-1 replication [1]
Cc1ccc(S(=O)(=O)/C=C/C#N)cc1 [Bay11] | not | no effect on oHSV-1 replication
N=C(N)NN [aminoguanidine hydrochloride] | – | no effect on oHSV-1 replication
